Series [1] relates to SARS-CoV-2. The class given is cell-based.
Series [2] relates to SARS-CoV-2. The class given is cell-based. The source holds these as a separate data set.
The test system of series [3] is SARS-CoV-2.
A short description of a further series: in vitro. As to conditions: African green monkey.
Series [4] concerns SARS-CoV-2. The series can be described thus: microbe, parasite or virus in culture. As to conditions: for IC90: read-out: SARS-CoV-2 RNA IC90.
Series [5] has as its system SARS-CoV-2. The series can be described thus: Chemical screening of 306 approved drugs by cytopathic effect assay. The class given is cell-based. (Cytopathic effects are the visible damage that an infection or toxin causes in cultured cells.)
Series [6] has as its system SARS-CoV-2. The class given is cell-based. Particulars: VeroE6/TMPRSS2, 48 hr.
Series [7] relates to SARS-CoV-2. The series can be described thus: Virus-cell binding assay at 4°C. The class given is cell-based.
For series [8], the system named is SARS-CoV-2. The series can be described thus: Viral N protein immunofluorescence in Calu-3 cells. The class given is cell-based.
The target in a further series is SARS-CoV-2 main protease (Severe acute respiratory syndrome coronavirus 2, UniProt P0DTD1). The series can be described thus: biochemical.
Series [9] has as its system SARS-CoV-2. The series can be described thus: microbe, parasite or virus in culture. The class given is cell-based.
The conditions of series [10]: expected in human lung.
The conditions of series [11]: patients, 500 mg NFV orally; ref Markowitz et al., 1998; read-out: serum Cmax; cited from earlier work.
In a further series the test system is SARS-CoV. As to conditions: ref Liu et al., 2005, Wu et al., 2004, Yamamoto et al.; cited from earlier work.
The nature of another series: clinical. As to conditions: human, po, 500 mg.
Where [12] appears, read: Severe acute respiratory syndrome coronavirus 2, VeroE6/TMPRSS2, 24 h, read-out: SARS-CoV-2 RNA IC50.
Setting [13] is: Severe acute respiratory syndrome coronavirus 2, VeroE6/TMPRSS2, 24 h.
Setting [14] is: Severe acute respiratory syndrome coronavirus 2, read-out: IC50 (Hill function fit).
[15] abbreviates: VeroE6/TMPRSS2, 24 hr, LPV 16 μM, CLQ 16 μM, RDV 20 μM, CEP 8 μM, NFV 4 μM.
The mark [16] stands for this setting: secreted viral RNA 24 hr, RDV 15 μM, CLQ 15 μM, CEP 8.2 μM, NFV 4 μM.
The mark [17] stands for this setting: Table S1, Single-drug treatment.

Read-outs that look alike come from different tables or passages of the source.

For orientation: IC50 means the concentration at which inhibition is half-maximal. Usually IC90 stands for the concentration at which the effect reaches the 90% level. As for `CCC(CC)COC(=O)[C@H](C)N[P@](=O)(OC[C@H]1O[C@@](C#N)(c2ccc3c(N)ncnn23)[C@H](O)[C@@H]1O)Oc1ccccc1` [RDV, Remdesivir], the N protein expression result in the series with SARS-CoV-2 [1] is “significantly reduced N protein expression”. Further, the “step of life cycle inhibited (time-of-addition)” value (“step of life cycle inhibited” for short) with SARS-CoV-2 [2] is listed as “negligible effect on virus entry”. Also, in the series on SARS-CoV-2 [3], the “antiviral activity on viral RNA” value is listed as “inhibited viral RNA” and the “m, slope of the dose-response curve (Hill coefficient)” value (shortened to “m, slope of the dose-response curve”) turned out to be 3.048. Besides, the CC50 in the series “in vitro” is > 64 µM. Moreover, the concentration for half-maximal inhibition (IC50) with SARS-CoV-2 [4] (setting [12]) stood at 1.58 µM. Further, the IC90 with SARS-CoV-2 [4] (setting [13]) amounted to 3.24 µM. In addition, the IC50 with SARS-CoV-2 [4] (setting [14]) was determined as 1.58 µM.
On to `CO[C@H]1C[C@@H]2CC[C@@H](C)[C@@](O)(O2)C(=O)C(=O)N2CCCC[C@H]2C(=O)O[C@H]([C@H](C)C[C@@H]2CC[C@@H](O)[C@H](OC)C2)CC(=O)[C@H](C)/C=C(\C)[C@@H](O)[C@@H](OC)C(=O)[C@H](C)C[C@H](C)/C=C/C=C/C=C/1C` [Rapamycin], for which the “screening outcome (hit = cell survival more than 20-fold of the control)” value with SARS-CoV-2 [5] is on record as “identified as hits”.
Take `CCOC(=O)O[C@]1(C(=O)OCCl)CC[C@H]2[C@@H]3CCC4=CC(=O)C=C[C@]4(C)[C@H]3[C@@H](O)C[C@@]21C` [Loteprednol]: in the series with SARS-CoV-2 [5], the “screening outcome (hit = cell survival more than 20-fold of the control)” value was “identified as hits”.
For `CCN(CC)CCCC(C)Nc1ccnc2cc(Cl)ccc12` (stereo not drawn) [CLQ, chloroquine], the virus-induced cytopathicity entry in the series on SARS-CoV-2 [6] is given as “reduced virus-induced cytopathicity”. Also, the N protein expression result in the series on SARS-CoV-2 [1] (setting [15]) is “significantly reduced N protein expression”. The “step of life cycle inhibited” value in the series with SARS-CoV-2 [2] (setting [16]) was “activity in the early stages of infection”. Moreover, the “SARS-CoV-2 binding to cells (cell-bound viral RNA)” value in the series on SARS-CoV-2 [7] is “negligible effect”. In addition, the “antiviral activity on viral RNA” value in the series on SARS-CoV-2 [3] is on record as “inhibited viral RNA”. The “m, slope of the dose-response curve” value in the series with SARS-CoV-2 [3] (setting [17]) was 1.984. Moreover, the CC50 in the series “in vitro” was > 64 µM. The IC50 in the series with SARS-CoV-2 [4] (setting [12]) and in the series with SARS-CoV-2 [4] (setting [14]) was 1.31 µM throughout. Further, the IC90 in the series with SARS-CoV-2 [4] (setting [13]) was 3.97 µM.
`NC(=O)c1nc(F)c[nH]c1=O` [FPV, favipiravir]: the “antiviral activity on viral RNA” value in the series on SARS-CoV-2 [3] is on record as “negligible antiviral activity”. In addition, the CC50 in the series “in vitro” was > 64 µM. Moreover, the IC50 in the series on SARS-CoV-2 [4] (setting [12]) is > 64 µM. Besides, the IC90 in the series with SARS-CoV-2 [4] (setting [13]) was > 64 µM.
Regarding heparin, the “SARS-CoV-2 binding to cells (cell-bound viral RNA)” value in the series on SARS-CoV-2 [7] is listed as “significantly blocked SARS-CoV-2 particle attachment”.
The Cmax is the highest concentration seen after dosing. Consider `Cc1c(O)cccc1C(=O)N[C@@H](CSc1ccccc1)[C@H](O)CN1C[C@H]2CCCC[C@H]2C[C@H]1C(=O)NC(C)(C)C` [NFV, nelfinavir], for which the virus-induced cytopathicity result with SARS-CoV-2 [6] was “greatest anti-cytopathic activity”. Besides, in the series with SARS-CoV-2 [1] (setting [15]), the N protein expression entry is “significantly reduced N protein expression”. The “SARS-CoV-2 proliferation in Calu-3 cells (N protein)” value with SARS-CoV-2 [8] is “inhibit SARS-CoV-2 proliferation”. In addition, the “step of life cycle inhibited” value in the series with SARS-CoV-2 [2] (setting [16]) is “clearly inhibited the post-entry process”. The IC50 on SARS-CoV-2 main protease is 37 µM; with SARS-CoV-2 [9] (setting [14]), 1.32 µM; with SARS-CoV-2 [4] (setting [12]), 0.77 µM; with SARS-CoV-2 [4] (setting [14]) it was 0.765 µM. The “m, slope of the dose-response curve” value in the series with SARS-CoV-2 [9] (Table S1, Combination treatment experiment) is reported as 4.043; in the series with SARS-CoV-2 [3] (setting [17]), 5.079. In the series with SARS-CoV-2 [9] ([…], CEP 3.20 μM, NFV 2.24 μM, alone or combined), the “viral RNA, % of untreated control” value came out at 5.8%. In the series with SARS-CoV-2 [5], the “screening outcome (hit = cell survival more than 20-fold of the control)” value is listed as “identified as hits”. Also, in the series on SARS-CoV-2 [3], the “viral RNA levels, % of the untreated control infections” value is given as 0.001–0.01%. Moreover, the “window (CC50/IC50)” value in the series on SARS-CoV-2 [3] is on record as > 70 fold. For the same compound, the Degradation rate k in [10] was found to be 4.89 day⁻¹. The Cmax in series [11] was 6.9 µM; in the series “clinical” it was 9.32 µM. The “replication of SARS-CoV” value in the series with SARS-CoV is reported as “inhibit the replication”. The CC50 in the series “in vitro” was > 64 µM. For the same compound, the IC90 in the series with SARS-CoV-2 [4] (setting [13]) worked out at 1.18 µM.
Take `Cc1cccc(C)c1OCC(=O)N[C@@H](Cc1ccccc1)[C@@H](O)C[C@H](Cc1ccccc1)NC(=O)[C@H](C(C)C)N1CCCNC1=O` [LPV, lopinavir]: the virus-induced cytopathicity result in the series on SARS-CoV-2 [6] is listed as “reduced virus-induced cytopathicity”. In the series on SARS-CoV-2 [1] (setting [15]), the N protein expression entry is on record as “significantly reduced N protein expression”. Besides, the “screening outcome (hit = cell survival more than 20-fold of the control)” value in the series with SARS-CoV-2 [5] is “identified as hits”. For the same compound, the “antiviral activity on viral RNA” value in the series with SARS-CoV-2 [3] is recorded as “inhibited viral RNA”. Besides, the “m, slope of the dose-response curve” value in the series with SARS-CoV-2 [3] (setting [17]) is 3.852. This compound also yielded a CC50 in the series “in vitro” of 54.9 µM. Besides, the IC50 with SARS-CoV-2 [4] (setting [12]) worked out at 3.07 µM; in the series with SARS-CoV-2 [4] (setting [14]), 3.61 µM. Moreover, in the series with SARS-CoV-2 [4] (setting [13]), the IC90 turned out to be 5.43 µM.

The record behind these values is PMC7997640, “Potential anti-COVID-19 agents, cepharanthine and nelfinavir, and their usage for combination treatment” (iScience, 2021).
